Test results as given in US11433053B2, “LSD1 inhibitor and preparation method and application thereof” (CSPC ZHONGQI PHARMACEUTICAL TECHNOLOGY (SHIJIAZHUANG) CO., …, priority 2017, dated 2022).

Tests used:
[1] = tested on: human small cell lung cancer NCI-H1417 cells subcutaneous xenograft tumor; assay: In vivo pharmacodynamic study, NCI-H1417 subcutaneous xenograft tumor CB-17 SCID mouse model; parameters: species or system CB-17 SCID mice
Procedure: The purpose of this experiment was to investigate the efficacy of some of the compounds of the present invention in the in vivo xenograft tumor of human small cell lung cancer NCI-H1417 cells in a CB-17 SCID mouse model.
Week age and weight: 6-8 weeks old, weight 18-23 g
Human small cell lung cancer NCI-H1417 cells were cultured in vitro in a single layer cultured in RPMI-1640 medium (Sigma-aldrich, R0883), supplemented with 10% fetal bovine serum and cultured at 37° C. 5% CO2. When the cell saturation is 80%-90%. The cells are harvested, counted, and inoculated.
0.2 mL of 10×10^6 (NCI-H1417 cells were subcutaneously inoculated into the right back of each mouse (PBS:Matrigel=1:1). After 21 days of tumor inoculation, group administration was started when the average volume reached 107 mm^3.
The experimental solvent was the 10% hydroxypropyl-β-cyclodextrin solution. The preparation method was as follows: 100 g of hydroxypropyl-β-cyclodextrin was weighed into a 1000 mL jar, 800 mL of ultrapure water was added, stirred overnight until completely dissolved, and then made up to 1000 mL. The test substance was dissolved in a solvent, and was prepared into a uniform solution of a certain concentration and stored at 4° C.
The experimental indicator is to investigate whether tumor growth is inhibited, delayed or cured. Tumor diameters were measured twice a week using vernier calipers. The tumor volume is calculated as: V=0.5a×b^2, and a and b represent the long and short diameters of the tumor, respectively.
The antitumor effect of the compound was evaluated by TG (%). TGI (%), reflecting the tumor growth inhibition rate. TGI (%) calculation: TGI (%)=[1−(the average tumor volume at the end of a treatment group−the average tumor volume at the beginning of the treatment group)/(the average tumor volume at the end of the treatment of the solvent control group−The average tumor volume at the start of treatment in the solvent control group) was ×100%. Solvent control: Vehicle (10% hydroxypropyl-β-cyclodextrin solution).

[2] = target: human LSD1 (Homo sapiens (Human), UniProt O60341); assay: Evaluation of enzyme activity: LSD1 fluorescence coupling enzyme assay (HRP/Amplex Red); type: biochemical; conditions: human LSD1, histone H3(1-21)K4me2 peptide 10 μM, 30 min pre-incubation
In short: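 Human LSD1 preincubated 30 min with compound, then reacted with H3(1-21)K4me2 peptide (10 μM). FAD-dependent H2O2 detected via HRP/Amplex Red fluorescence (Ex/Em 535/590). Ten-dose, 3-fold dilutions in duplicate from 10 μM gave IC50s, binned into activity classes.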

[3] = tested on: H1417 cells; assay: Cell proliferation inhibitory activity on H1417 cells (CellTiter-Glo, 10 days); type: cell-based, human; conditions: for IC50: 10 days incubation; for Emax: NCI-H1417, H1417 cells, read-out: Maximum inhibition percentage (%)
In short: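 H1417 cells in RPMI 1640 with fetal bovine serum were treated with 10-point 3-fold compound dilutions for 10 days. Viability was read by CellTiter-Glo luminescence. IC50 came from a four-parameter fit of percent inhibition, and maximal inhibition was also categorized.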

[4] = target: hERG potassium channel (Homo sapiens (Human), UniProt Q12809); assay: Assay on inhibiting hERG potassium channel (automatic patch clamp, CHO-hERG cells); type: cell-based; conditions: Qpatch, max test concentration 40 μM
Procedure: Experimental purpose: Using automatic patch clamp method to detect the effect of the sample to be tested on hERG potassium channel.
4.1.1 CHO-hERG cells were cultured in 175 cm^2 flasks. When the cell density was increased to 60-80%, the culture solution was removed and the resultant was washed with 7 mL PBS (Phosphate Buffered Saline phosphate buffer), then 3 mL of digestive juice was added to digest.
4.1.2 After the digestion finished, 7 mL culture solution was added to neutralize. Then centrifuge, aspirate the supernatant, and then resuspend by adding 5 mL culture solution to ensure a cell density of 2-5×10^6/mL.
Single cell high impedance sealing and whole cell pattern formation were all done automatically by the Qpatch instrument. After the whole-cell recording mode was obtained, the cells were clamped at −80 mV. 50-Millisecond−50 mV preamplifier was applied prior to a 5 second+40 mV depolarization stimulus. Then the voltage was repolarized to −50 mV for 5 seconds and back to −80 mV. This voltage stimulation was applied every 15 seconds, and the extracellular fluid was recorded over 5 minutes after 2 minutes' record, and then the administration process was started. The compound concentration was started from the lowest test concentration, and each test concentration was given for 2.5 minutes. Test at least 3 cells (n≥3) for each concentration.
4.4.1 Dilute 20 mM mother liquor of the compound with extracellular fluid 5 μL of 20 mM mother liquor of the compound was added to 2495 μL extracellular fluid, and the mixture was 500-fold diluted to 40 μM. Then 0.2% DMSO in extracellular fluid was 3-fold diluted sequentially to obtain the final concentration to be tested.
4.4.2 The max test concentration was 40 μM, 6 concentrations were 40, 13.33, 4.44, 1.48, 0.49, and 0.16 μM respectively.
Experimental data was analyzed by XLFit software.

[5] = Pharmacokinetic evaluation in C57BL/6 mice after intravenous and oral administration; type: in vivo; conditions: male, mouse, plasma
Procedure: Experimental purposes: To test the pharmacokinetics of compounds in C57BL/6 mice
C57BL/6 mice (male, 7-9 weeks old, Shanghai Slack)
Test the pharmacokinetics characteristics of rodents after intravenous and oral administration in accordance with standard protocols, and the candidate compound was formulated into a clear solution in the experiment. The mice were administered by intravenous injection and orally once. The intravenous and oral vehicle is a 10% aqueous solution of hydroxypropyl β-cyclodextrin or a physiological saline solution. Six male C57BL/6 mice were employed in this assay, three of them were administered intravenously at a dose of 1 mg/kg, plasma samples were collected at 0 h (before administration) and 0.0833, 0.25, 0.5, 1, 2, 4, 7, 24 h after administration. Another three mice were administered by oral gavage at a dose of 2 mg/kg, plasma samples were collected at 0 h (before administration) and 0.5, 1, 2, 3, 4, 6, 24 h after administration. Collect whole blood samples within 24 hours, centrifuge at 3000 g for 15 minutes, separate the supernatant to obtain a plasma sample, 4 times volume of the internal standard acetonitrile solution was added to precipitate the protein. Centrifuge the supernatant and add an equal volume of water and centrifuge to take the supernatant. LC-MS/MS was used to quantitatively analyze plasma concentrations and calculate pharmacokinetic parameters such as max concentration (Cmax), clearance (CL), half-life (T1/2), volumes of distribution (Vdss), the area under the plasma concentration-time curve (AUC0-last), bioavailability (F), etc.

[6] = 1 mg/kg, ip, BIW, day 28 after administration
[7] = 1 mg/kg, ip, BIW, day 34 after administration
[8] = Homo sapiens, NCI-H1417, 240 h, H1417 cells
[9] = Homo sapiens, highest percentage inhibition of cell viability
[10] = 5 mg/kg, PO, QD, day 34 after administration
[11] = 1.5 mg/kg, PO, QD, day 27 after administration
[12] = 2.5 mg/kg, PO, BID, day 34 after administration

Chain of hERG potassium channel (Q12809 whole entry): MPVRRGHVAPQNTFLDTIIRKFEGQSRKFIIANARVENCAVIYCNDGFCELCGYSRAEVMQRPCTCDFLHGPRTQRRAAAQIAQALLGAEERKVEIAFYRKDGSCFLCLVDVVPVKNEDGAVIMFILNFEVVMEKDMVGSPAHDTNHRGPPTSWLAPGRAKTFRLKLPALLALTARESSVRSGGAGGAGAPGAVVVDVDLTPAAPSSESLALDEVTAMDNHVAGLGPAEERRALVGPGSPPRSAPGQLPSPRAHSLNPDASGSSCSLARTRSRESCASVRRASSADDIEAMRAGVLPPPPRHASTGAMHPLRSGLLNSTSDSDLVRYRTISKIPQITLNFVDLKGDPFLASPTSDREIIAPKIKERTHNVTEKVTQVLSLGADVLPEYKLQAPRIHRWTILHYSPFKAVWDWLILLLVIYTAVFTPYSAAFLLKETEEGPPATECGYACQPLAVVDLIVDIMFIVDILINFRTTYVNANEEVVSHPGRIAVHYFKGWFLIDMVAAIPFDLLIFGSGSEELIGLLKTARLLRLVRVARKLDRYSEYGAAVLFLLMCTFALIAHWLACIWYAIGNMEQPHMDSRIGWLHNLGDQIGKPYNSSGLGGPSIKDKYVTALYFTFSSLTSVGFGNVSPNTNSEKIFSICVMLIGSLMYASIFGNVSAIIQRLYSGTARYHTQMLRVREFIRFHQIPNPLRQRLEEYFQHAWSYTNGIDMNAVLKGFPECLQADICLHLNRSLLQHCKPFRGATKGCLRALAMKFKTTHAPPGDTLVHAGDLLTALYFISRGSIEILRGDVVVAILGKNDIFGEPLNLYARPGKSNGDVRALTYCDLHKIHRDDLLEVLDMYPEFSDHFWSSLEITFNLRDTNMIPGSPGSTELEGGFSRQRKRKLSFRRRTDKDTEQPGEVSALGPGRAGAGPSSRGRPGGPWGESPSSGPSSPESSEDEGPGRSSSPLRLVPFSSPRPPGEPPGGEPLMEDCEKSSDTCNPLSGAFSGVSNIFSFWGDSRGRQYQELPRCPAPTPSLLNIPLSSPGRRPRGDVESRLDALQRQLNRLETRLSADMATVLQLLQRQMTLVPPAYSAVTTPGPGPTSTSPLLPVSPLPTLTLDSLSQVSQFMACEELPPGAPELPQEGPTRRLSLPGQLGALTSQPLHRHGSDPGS

Structure (SMILES)	IC50 [2] [nM]	IC50 [3, 8] [nM]	Emax [3, 9] [%]	TGI (%) [1, 10] [%]	Tumor volume (mm^3) (Day 34) [1, 10]	IC50 [4] [nM]	TGI (%) [1, 11] [%]	Tumor volume (mm^3) (Day 27) [1, 11]	other results
N.N.[Cl][Pt][Cl] [Cisplatin]									TGI (%) [1, 6]: 90%; Tumor volume (mm^3) (Day 28) [1, 6]: 150 ± 9 mm^3; TGI (%) [1, 7]: 61.2%; Tumor volume (mm^3) (Day 34) [1, 7]: 328 ± 37 mm^3
NC12CCC(c3nc(C4(CN[C@@H]5C[C@H]5c5ccccc5)CC4)no3)(CC1)CC2 [Example 155]	≤ 50	100 to 500	90 to 100			> 40000	78.7	200 ± 15	
O=C(O)[C@H]1CC[C@H](c2nc(C3(CN[C@@H]4C[C@H]4c4ccccc4)CC3)no2)CC1 [Example 167]	100 to 500			78.2	231 ± 28				Cmax ([5]; IV 1 mg/kg, oral 2 mg/kg, route of Cmax not stated, read-out: max concentration Cmax): 5090 ng/mL; clearance ([5]; IV 1 mg/kg, read-out: clearance CL): 11.6 mL/min/kg; half-life ([5]; IV 1 mg/kg, read-out: half-life T1/2 (IV, h) (converted)): 1.4 h; Vd ([5]; IV 1 mg/kg, read-out: volumes of distribution Vdss): 0.4 L/kg; bioavailability ([5]; PO 2 mg/kg vs IV 1 mg/kg, read-out: bioavailability F (%)): 48.1%; AUC(0-t) ([5]; PO 2 mg/kg, read-out: the area under the plasma concentration-time curve AUC0-last PO): 3.51 µM·h; TGI (%) [1, 12]: 81.4%; Tumor volume (mm^3) (Day 34) [1, 12]: 213 ± 37 mm^3
CN[C@H]1CC[C@H](c2nc(C3(CN[C@@H]4C[C@H]4c4ccccc4)CC3)no2)CC1 [Example 232]	50 to 100	500 to 1000	70 to 90			> 40000	51.1	313 ± 28	

Second part, led by results:

IC50 [2] [nM]	IC50 [3, 8] [nM]	Structure (SMILES)	Emax [3, 9] [%]	TGI (%) [1, 10] [%]	Tumor volume (mm^3) (Day 34) [1, 10]	IC50 [4] [nM]	TGI (%) [1, 11] [%]	Tumor volume (mm^3) (Day 27) [1, 11]	other results
≤ 50	500 to 1000	N[C@H]1CC[C@H](c2nc(C3(CN[C@H]4CC4c4ccccc4)CC3)no2)CC1 (stereo partly shown) [Example 142]	70 to 90	94.9	136 ± 21				
50 to 100		N[C@H]1CC[C@H](c2nc(C3(CN[C@H]4C[C@@H]4c4ccccc4)CC3)no2)CC1 [Example 143]		93.3	145 ± 29				IC50 ([3]; H1417 cells): 500 to 1000 nM; Maximum inhibition percentage (%) ([3]; H1417 cells, highest percentage inhibition of cell viability): C (70%>C≥50%)
≤ 50	500 to 1000	N[C@H]1C[C@H](c2nc(C3(CN[C@@H]4C[C@H]4c4ccccc4)CC3)no2)C1 [Example 146]	90 to 100			> 40000			
≤ 50	100 to 500	NC1CC2(C1)CC(c1nc(C3(CN[C@@H]4C[C@H]4c4ccccc4)CC3)no1)C2 (stereo partly shown) [Example 151]	90 to 100				66.3	250 ± 50	
